Results taken from article PMC12299847, “Macroalgae-Inspired Brominated Chalcones as Cosmetic Ingredients with the Potential to Target Skin Inflammaging” (Marine Drugs, 2025).

What was measured:
[1] = Resazurin cell viability assay in HaCaT keratinocytes; format: cell-based, human; settings: human, HaCaT keratinocytes, resazurin, read-out: IC50 (cell viability, cytotoxicity)
Method: (§1) To evaluate the effects of chalcones 1–7 on cell viability after 24 h, a resazurin assay was performed using two cell lines: human HaCaT keratinocytes (HaCaT, CLS 300493), representing the epidermal layer, and murine RAW 264.7 macrophages (RAW 264.7, ATCC TIB-71), which model immune cells involved in dermal inflammatory responses. For the keratinocyte cell line, all seven brominated and non-brominated chalcones were tested across a concentration range from 2.5 μM to 125 μM (Figure 2).
(§2) Human keratinocytes (HaCaT, CLS 300493, Eppelheim, Germany) were cultured in DMEM supplemented with heat-inactivated FBS, and a penicillin and streptomycin antibiotic solution. The cell culture of keratinocytes was washed with 6 mL of phosphate buffer solution with 0.05% EDTA (Sigma-Aldrich, St. Louis, MO, USA) and detached using 3 mL of 0.05% trypsin + 0.02% EDTA in PBS solution when the cells reached 70–80% confluence in cell culture flasks. DMEM was also used to cultivate the mouse macrophage cell line (RAW 264.7, ATCC TIB-71, Manassas, VA, USA) together with 10% (v/v) non-inactivated FBS, 1.5 g/L sodium bicarbonate, and 100 U/mL penicillin and 100 μg/mL streptomycin stock (antibiotic solution). The macrophage culture was mechanically detached using a cell scraper, and the final amount of DMEM media with the cells was sub-cultured in a 1:10 ratio to the cellular suspension.
(§3) The resazurin reduction assay was employed to evaluate the metabolic activity of human epidermal keratinocyte (HaCaT) and murine macrophage (RAW264.7) cell lines, as outlined in a previous study. In brief, HaCaT cells (1.0 × 10^5 cells/mL) and RAW264.7 cells (5.0 × 10^4 cells/mL) were seeded in 96-well plates (200 μL/well) and incubated overnight at 37 °C to allow for cell attachment. Following this, the cells were treated with different concentrations of the test compounds and kept at 37 °C for 24 h. After 20 h, resazurin (500 μM in sterile phosphate buffer solution, pH 7.4) was added to each well to achieve a final concentration of 50 μM, followed by an additional incubation of 4 h. Absorbance was then measured at wavelengths of 570 and 620 nm using a SpectraMax Plus 384 absorbance microplate spectrophotometer (Molecular Devices, San Jose, CA, USA). Each experiment was conducted in triplicate, with a minimum of three independent assays. The results were graphically presented as the percentage of cell viability versus chemical concentration, relative to the control.
(§4) Figure 2 Cytotoxicity of chalcones 1–7 using a resazurin reduction assay in HaCaT cells by comparison with the control. Bar graphs represent the mean ± SEM of at least three independent experiments performed in triplicate. Statistical analysis: one ANOVA with Dunnett’s multiple comparisons test, where p < 0.05 was considered significant when compared to the control condition. * p < 0.05, ** p < 0.01, and *** p < 0.0005.

[2] = system: HaCaT keratinocytes; assay: as above; format: cell-based, human; settings: HaCaT, 24 h, at 2.5 μM and 7.5 μM
Method: as §1, §2, §3, §4

[3] = system: RAW 264.7 macrophages; assay: Resazurin cell viability assay in RAW 264.7 macrophages; format: cell-based, murine; settings: RAW 264.7, 24 h
Method: as §1
To evaluate the cytotoxic effects of brominated and non-brominated chalcones 1–7 on macrophages, different concentration ranges were applied based on the response profiles previously observed for keratinocytes (Figure 3). […] For this set of chalcones, a similar tendency was observed: a lower cytotoxic characteristic of chalcone 4, which contained bromine atoms in both aromatic rings, compared to chalcones 5 (brominated in only the aromatic A ring) and 6 (non-brominated).
as §2
as §3, with “The results were graphically presented as the percentage of cell viability versus chemical concentration, relative to the control.” left out

[4] = system: NO production in LPS-stimulated RAW 264.7 macrophages; assay: NO production (Griess assay) in LPS-stimulated macrophages; format: cell-based, murine; settings: Mus musculus, RAW264.7, 24 h, RAW 264.7, LPS 100 ng/mL, Griess
Method: The anti-inflammatory potential of chalcones 1–7 was evaluated in macrophages cultured in the presence or absence (control) of LPS, as depicted in Figure 4. Under basal conditions (unstimulated, control), macrophages produce low levels of nitrites (≈12%). […] Each chalcone was tested at concentrations previously established as non-cytotoxic in macrophages, trying to ensure that observed changes in NO levels were not due to reduced cell viability.
The production of NO was evaluated by measuring nitrite accumulation in culture supernatants using the previously described Griess assay. Cells were seeded at a concentration of 5.0 × 10^4 cells/mL in a 96-well plate (200 μL/well) and allowed to stabilize overnight at 37 °C. Afterwards, the cells were treated with different concentrations of compound solutions and pre-incubated for 1 h at 37 °C. Subsequently, an LPS in PBS solution was added to each well, achieving a final concentration of 100 ng/mL, and the plate was left to incubate for 24 h. An amount of 150 μL of the cell culture supernatant was then transferred to a fresh 96-well plate, and an equal amount of Griess reagent [comprising a 1:1 mixture of 1% (w/v) sulphanilamide in 5% (v/v) phosphoric acid and 0.1% (w/v) naphthylethylenediaminedihydrochloride] was added. Following a 30 min incubation at room temperature in the dark, the absorbance was recorded at 550 nm using a Biotek Synergy HT plate reader (Biotek, CA, USA). The nitrite concentration in the supernatants was determined by comparing the absorbance of each sample to a sodium nitrite standard curve. The results, obtained from at least three independent experiments performed in duplicate, were expressed as a percentage of NO production by cells versus chemical concentration, relative to LPS condition (100%).
Figure 4 NO production by macrophages treated with LPS (100 ng/mL) or not (control) in the presence of chalcones 1–7. Results are expressed as a percentage of NO production by cells treated with LPS (100 ng/mL). Each value represents the mean ± SEM of four independent experiments in duplicate. Statistical analysis: one ANOVA with Dunnett’s multiple comparisons test, where p< 0.05 was considered significant. *** p < 0.005, relative to the control, and ^# p < 0.05, ^## p < 0.01, ^### p < 0.0005, and ^#### p < 0.0001, relative to LPS condition.

IC50 [4] [µM]	Compound	IC50 at 24 h [1] [µM]	cytotoxicity / impact on keratinocyte viability [2]	concentration up to which acceptable levels of cytotoxicity were observed [3]
0.97 ± 0.22	COc1cc(Br)cc(/C=C/C(=O)c2c(Br)c(Br)cc(OC)c2OC)c1OC [Chalcone 4]	11.7 ± 1.34	no significant impact	up to 7.5 μM
0.99 ± 0.54	COc1cccc(/C=C/C(=O)c2c(Br)c(Br)cc(OC)c2OC)c1OC [Chalcone 5]	30.4 ± 2.66	no significant impact	up to 1 μM
